Data: US20090048190A1, “Antiviral activity and resolution of 2-hydroxymethyl-5(5-fluorocytosin-1-yl)-1,3-oxathiolane” (priority 1990, published 2009)
pEC50, pIC50: −log10 of the molar value. Values joined by “and” are separate entries in the source; they are usually repeats but may differ in a detail not shown here. Identical values can stand only once. Like-named read-outs stand apart in the source and are kept apart here.

Key:
HIV-1 (strain LAV) = type: cell-based
Text: It is often desirable to screen a number of racemic mixtures of nucleosides as a preliminary step to determine which warrant further resolution into enantiomerically enriched components and further evaluation of antiviral activity. The ability of nucleosides to inhibit HIV can be measured by various experimental techniques. The technique used herein, and described in detail below, measures the inhibition of viral replication in phytohemagglutinin (PHA) stimulated human peripheral blood mononuclear (PBM) cells infected with HIV-1 (strain LAV). The amount of virus produced is determined by measuring the virus-coded reverse transcriptase enzyme. The amount of enzyme produced is proportional to the amount of virus produced.
A. Three-day-old phytohemagglutinin-stimulated PBM cells (10^6 cells/ml) from hepatitis B and HIV-1 seronegative healthy donors were infected with HIV-1 (strain LAV) at a concentration of about 100 times the 50% tissue culture infectious dose (TICD 50) per ml and cultured in the presence and absence of various concentrations of antiviral compounds.
B. Approximately one hour after infection, the medium, with the compound to be tested (2 times the final concentration in medium) or without compound, was added to the flasks (5 ml; final volume 10 ml). AZT was used as a positive control.
C. The cells were exposed to the virus (about 2×10^5 dpm/ml, as determined by reverse transcriptase assay) and then placed in a CO2 incubator. HIV-1 (strain LAV) was obtained from the Center for Disease Control, Atlanta, Ga. The methods used for culturing the PBM cells, harvesting the virus and determining the reverse transcriptase activity were those described by McDougal et al. (J. Immun. Meth. 76, 171-183, 1985) and Spira et al. (J. Clin. Meth. 25, 97-99, 1987), except that fungizone was not included in the medium (see Schinazi, et al., Antimicrob. Agents Chemother. 32, 1784-1787 (1988); Id., 34:1061-1067 (1990)).
D. On day 6, the cells and supernatant were transferred to a 15 ml tube and centrifuged at about 900 g for 10 minutes. Five ml of supernatant were removed and the virus was concentrated by centrifugation at 40,000 rpm for 30 minutes (Beckman 70.1 Ti rotor). The solubilized virus pellet was processed for determination of the levels of reverse transcriptase. Results are expressed in dpm/ml of sampled supernatant. Virus from smaller volumes of supernatant (1 ml) can also be concentrated by centrifugation prior to solubilization and determination of reverse transcriptase levels.

[1] = system: uninfected human PBM cells
Text: The cells were counted after 6 days using a hemacytometer and the trypan blue exclusion method, as described by Schinazi et al., Antimicrobial Agents and Chemotherapy, 22(3), 499 (1982).

HIV-2 = experiment: Antiretroviral activity in different cell systems, HIV-2; type: cell-based; conditions: PBMC (ROD2)
Method: Cell lines were obtained from either human donors, AIDS Research and Reference Reagent Program, NIH, Rockville, Md., ATCC, or the Red Cross. The CEM thymidine kinase deficient cells were prepared by sequential passage of CEM cells in the presence of 5-bromo-2′-deoxyuridine.

HIV = experiment: microbe, parasite or virus in culture; type: cell-based; conditions: Human immunodeficiency virus 1; MT4 system
[2] = CSF/serum ratio in rhesus monkeys; type: in vivo; conditions: 1 hour after treatment
[3] = PBM cells, procedure similar to Example 6, read-out: EC50
[4] = enantiomers resolved by HPLC (Example 4), Table 4, read-out: EC50
[5] = human PBM cells, HIV-1 strain LAV, Table 3, read-out: Antiviral EC50

**Q.** With `CCCC(=O)OC[C@@H]1O[C@H](n2cc(F)c(N)nc2=O)CS1` (racemic) [5′-O-butyrate ester of (±)-FTC] as the compound, how does the pEC50 (HIV-1 (strain LAV); [3]) read?
**A.** 8.77

**Q.** With `CC(=O)Nc1nc(=O)n(C2CSC(CO)O2)cc1F` (racemic) [N′-acetyl derivative of (±)-FTC] as the compound, how does the pEC50 (HIV-1 (strain LAV); [3]) read?
**A.** 8.55

**Q.** Which DPM/ml (HIV-1 (strain LAV); 0.001 μM) does the source give for `Nc1nc(=O)n(C2CSC(CO)O2)cc1F` (single isomer, unassigned; (-)) [(−)-FTC, (−)-β-L-2-hydroxymethyl-5-(5-fluorocytosin-1-yl)-1,3-oxathiolane] here?
**A.** 76,275 DPM/ml

**Q.** What about the DPM/ml (HIV-1 (strain LAV); 0.005 μM) of the same compound?
**A.** 58,590 DPM/ml

**Q.** What about the DPM/ml (HIV-1 (strain LAV); 0.01 μM) of the same compound?
**A.** 75,350 DPM/ml

**Q.** And the DPM/ml (HIV-1 (strain LAV); 0.05 μM)?
**A.** 28,890 DPM/ml

**Q.** What about the DPM/ml (HIV-1 (strain LAV); 0.1 μM) of the same compound?
**A.** 13,175 DPM/ml

**Q.** And the DPM/ml (HIV-1 (strain LAV); 0.5 μM)?
**A.** 9,485 DPM/ml

**Q.** What about the pEC50 (HIV-1 (strain LAV); [4]) of the same compound?
**A.** 7.70

**Q.** What about the pEC50 (HIV-1 (strain LAV); [5]) of the same compound?
**A.** 8.10

**Q.** And the pIC50 [1]?
**A.** < 4.00

**Q.** What about the pEC50 (HIV-2) of the same compound?
**A.** 9.15

**Q.** Which “% Inhibition (Corrected)” value (HIV-1 (strain LAV); 0.001 μM) does the source give for `Nc1nc(=O)n([C@H]2CS[C@@H](CO)O2)cc1F` [(+)-FTC, (+)-β-D-2-hydroxymethyl-5-(5-fluorocytosin-1-yl)-1,3-oxathiolane] here?
**A.** 3.8%

**Q.** And the DPM/ml (HIV-1 (strain LAV); 0.001 μM)?
**A.** 94,340 DPM/ml

**Q.** What about the “% Inhibition (Corrected)” value (HIV-1 (strain LAV); 0.005 μM) of the same compound?
**A.** −10.6%

**Q.** What about the DPM/ml (HIV-1 (strain LAV); 0.005 μM) of the same compound?
**A.** 107,430 DPM/ml

**Q.** What about the “% Inhibition (Corrected)” value (HIV-1 (strain LAV); 0.01 μM) of the same compound?
**A.** −1.8%

**Q.** And the DPM/ml (HIV-1 (strain LAV); 0.01 μM)?
**A.** 99,465 DPM/ml

**Q.** And the “% Inhibition (Corrected)” value (HIV-1 (strain LAV); 0.05 μM)?
**A.** 11.8%

**Q.** What about the DPM/ml (HIV-1 (strain LAV); 0.05 μM) of the same compound?
**A.** 87,120 DPM/ml

**Q.** What about the “% Inhibition (Corrected)” value (HIV-1 (strain LAV); 0.1 μM) of the same compound?
**A.** 12.7%

**Q.** What about the DPM/ml (HIV-1 (strain LAV); 0.1 μM) of the same compound?
**A.** 86,340 DPM/ml

**Q.** What about the “% Inhibition (Corrected)” value (HIV-1 (strain LAV); 0.5 μM) of the same compound?
**A.** 71.4%

**Q.** And the DPM/ml (HIV-1 (strain LAV); 0.5 μM)?
**A.** 33,225 DPM/ml

**Q.** What about the pEC50 (HIV-1 (strain LAV); [4]) of the same compound?
**A.** 6.55

**Q.** And the pEC50 (HIV-1 (strain LAV); enantiomers resolved by method of Example 3, FIG. 6, read-out: EC50)?
**A.** 6.08

**Q.** And the pIC50 [1]?
**A.** < 4.00

**Q.** What about the pEC50 (HIV-2) of the same compound?
**A.** 7.59

**Q.** With `Cc1cn([C@H]2C[C@H](N=[N+]=[N-])[C@@H](CO)O2)c(=O)[nH]c1=O` [AZT, 3′-azido-3′-deoxythymidine, reference compound] as the compound, how does the pIC50 (HIV) read?
**A.** 7.05

**Q.** With `O=c1ccn(C2CSC(CO)O2)c(=O)[nH]1` (stereo not drawn) [DLS-009] as the compound, how does the pEC50 (HIV-1 (strain LAV); [5]) read?
**A.** < 4.00

**Q.** And the pIC50 [1]?
**A.** < 4.00

**Q.** With `Cc1cn(C2CSC(CO)O2)c(=O)[nH]c1=O` (stereo not drawn) [DLS-010] as the compound, how does the pEC50 (HIV-1 (strain LAV); [5]) read?
**A.** 4.19

**Q.** With `Cc1cn([C@H]2CS[C@@H](CO)O2)c(=O)nc1N` [DLS-011] as the compound, how does the pEC50 (HIV-1 (strain LAV); [5]) read?
**A.** < 5.00

**Q.** With `Nc1nc(=O)n([C@H]2CS[C@@H](CO)O2)cc1Br` [DLS-021] as the compound, how does the pEC50 (HIV-1 (strain LAV); [5]) read?
**A.** 4.11

**Q.** With `Nc1nc(=O)n([C@H]2CS[C@@H](CO)O2)cc1Cl` [DLS-023] as the compound, how does the pEC50 (HIV-1 (strain LAV); [5]) read?
**A.** 4.41

**Q.** With `Nc1nc(=O)n([C@H]2CS[C@@H](CO)O2)cc1I` [DLS-026] as the compound, how does the pEC50 (HIV-1 (strain LAV); [5]) read?
**A.** 6.14

**Q.** With `O=c1[nH]c(=O)n([C@H]2CS[C@@H](CO)O2)cc1F` [DLS-027] as the compound, how does the pEC50 (HIV-1 (strain LAV); [5]) read?
**A.** < 4.00

**Q.** What about the pIC50 [1] of the same compound?
**A.** < 4.00

**Q.** With `O=c1[nH]c(=O)n([C@H]2CS[C@@H](CO)O2)cc1Cl` [DLS-028] as the compound, how does the pEC50 (HIV-1 (strain LAV); [5]) read?
**A.** 4.22

**Q.** With `O=c1[nH]c(=O)n([C@H]2CS[C@@H](CO)O2)cc1I` [DLS-029] as the compound, how does the pEC50 (HIV-1 (strain LAV); [5]) read?
**A.** < 4.00

**Q.** And the pIC50 [1]?
**A.** < 4.00

**Q.** With `O=c1[nH]c(=O)n([C@H]2CS[C@@H](CO)O2)cc1Br` [DLS-044] as the compound, how does the pEC50 (HIV-1 (strain LAV); [5]) read?
**A.** < 4.00

**Q.** What about the pIC50 [1] of the same compound?
**A.** < 4.00

**Q.** With `Nc1nc(=O)n([C@@H]2CS[C@H](CO)O2)cc1C(F)(F)F` [DLS-053] as the compound, how does the pEC50 (HIV-1 (strain LAV); [5]) read?
**A.** 4.22

**Q.** With `O=c1[nH]c(=O)n(C2CSC(CO)O2)cc1F` (stereo not drawn) [FTU] as the compound, how does the “CSF/Serum Ratio of deaminated metabolite (FTU)” value (“CSF/Serum Ratio” below) ([2]; I.V. FTC 33.3 mg/kg, individual monkeys) read?
**A.** 0.024 and 0.032 and 0.052

**Q.** What about the “CSF/Serum Ratio” value ([2]; I.V. FTC 33.3 mg/kg, mean) of the same compound?
**A.** 0.036

**Q.** What about the “CSF/Serum Ratio” value ([2]; P.O. FTC 33.3 mg/kg, individual monkeys) of the same compound?
**A.** 0.026 and 0.037 and 0.055

**Q.** And the “CSF/Serum Ratio” value ([2]; P.O. FTC 33.3 mg/kg, mean)?
**A.** 0.039
